Tests used:
[1] = system: adenosine-sensitive receptors of erythrocytes; test: Interaction with adenosine-sensitive receptors of erythrocytes (chemiluminescence of bound compound, adenosine competition); format: binding, mice of line BALB/c; conditions: incubation at 37° C. vs 4° C., 10^−7 to 10^−5 M
Protocol: The interaction of compounds 2, 15, 21, 37 according to the invention with adenosine-sensitive receptors of erythrocytes of female mice of line BALB/c of an age of 8-12 months was investigated.
The dependence of the chemiluminescence intensity of the compounds according to the invention in an alkaline solution of 0.1N NaOH was determined in the presence of hydrogen peroxide being an initiator of chemiluminescence. The chemiluminescence was studied using the <<LKB>> chemiluminometer.
The erythrocytes of peripheral blood of the mice at first were washed three times by a normal physiological solution with centrifuging and then diluted in the Henks solution without glucose by 10 volumes of distilled water immediately used in the experiment.
At the first stage of the experiments the washed erythrocytes were incubated at a temperature of 37° C. or at 4° C. with solutions of the compounds according to the invention at a concentration of 10^−7 to 10^−5 M for 5-30 minutes, then washed by a normal physiological solution with repeated centrifuging in the cold. The obtained suspension of erythrocytes with the bound compounds according to the invention was placed in 0.1N solution of NaOH with addition of hydrogen peroxide at a final concentration of 10^−7 M. The chemiluminescence intensity was measured. A suspension of erythrocytes without compounds according to the invention was used as a control medium.
At the second stage of the experiments the washed erythrocytes were incubated at a temperature of 37° C. with solutions of the compounds according to the invention at a concentration of 10^−11 to 10^−8 M during 5-30 minutes, then washed twice with a normal physiological solution by centrifuging in the cold, the obtained suspension was mixed with an adenosine solution at a concentration of 10^−6 to 10^−4 and incubated for 15 minutes, then washed twice with a normal physiological solution with centrifuging in the cold. The obtained suspension of erythrocytes with the compounds according to the invention was placed in 0.1N solution of NaOH with addition of hydrogen peroxide in the final concentration of 10^−7 M. The chemiluminescence intensity was measured.

plasma hemostasis = test: Autocoagulation test (coagulating activity A) after intravenous administration; format: in vivo, rabbit
Protocol: The investigations were performed on 72 rabbits of the “Chinchilla” breed with a mass of 2.5±0.3 kg, who were administered which solutions of compounds 2, 15, 21, 37 in doses of 15, 30 and 60 mg/kg intravenously. The experiments included the thrombin-test (series No. 7300) and the coagulability-test (series No. 5000) purchased from the scientific-and-production association (SPA) “Renam”, thromboplastin (series No. 240600) and calcium chloride purchased from the SPA “MedioLab”
The static parameters of the blood and plasma coagulation (partial activated thromboplastin time, thrombin time, maximum coagulation activity (test for auto coagulation) were determined using the Behnk Electronic coagulometer (Germany). The operating principle of this instrument is based on the fact that the formed blood clot breaks the contacts of the pulse counter in the flask-pin circuit, said pin permanently oscillating in a vertical plane. The moment of formation of the clot is registered by stopping the stop watch hand.
The measurements were effected at a constant temperature of 37° C. maintained by a temperature control unit.
Compounds 2, 15, 21, 37 according to the invention at a concentration of 15, 30 and 60 mg/kg were intravenously administered to the above experimental animals and their blood samples were taken off 15, 30, 60 and 120 minutes after the administration.
Added to 0.2 ml of plasma obtained by centrifuging citrate blood at 1500 rev/min within 10 minutes was a glycosylate-calcium mixture (2.0 ml 0.222% CaCl2+0.1 ml of investigated citrate blood) 4, 6, 8, 10 minutes after the preparation of this mixture and the time of coagulation in the sample was determined.
The obtained results in seconds were translated in factors of coagulating activity A in percent, which specify the state of both the coagulating and anticoagulating parts of the blood coagulating system. The results of the experiments are given in Table 7. • The effect of the compounds according to the invention on the values of coagulating activity A by the data of autocoagulation test with intravenous administration of the compounds to the rabbits

[2] = Electrochemical activity: polarographic reduction on mercury dripping electrode; format: physicochemical; conditions: for i: 2.0% sodium chloride background, 9·10^−4 M; for i / −E1/2: 37° C., forward trace, average for the group of compounds; for −E1/2: vs SCE
[3] = system: synthase of nitrogen oxide (NOC); test: Morphine abstinence model: activity of synthase of nitrogen oxide (NOC), radiometric [3H]L-citrulline method; format: in vivo, rats Wistar; conditions: 20.0 mg/kg intramuscularly; for Activity of NOC: Mesencephalon: control 2.18 ± 0.09; for Activity of NOC: Hypothalamus: control 5.37 ± 0.20

SMILES: Nc1cccc2c(=O)[nH][nH]c(=O)c12.[Na] [Compound 15, sodium salt of 5-amino-benzo[d]-3H-pyridazine-1,4-dione]
- dependence of the bond with erythrocytes on temperature [1]: does not depend on the temperature
- coagulating activity A (autocoagulation test) (plasma hemostasis; 15.0 mg/kg intravenously, after 15 minutes, control 85.6): 82.3%
- coagulating activity A (autocoagulation test) (plasma hemostasis; 15.0 mg/kg intravenously, after 30 minutes, control 85.6): 103.0%
- coagulating activity A (autocoagulation test) (plasma hemostasis; 15.0 mg/kg intravenously, after 60 minutes, control 85.6): 89.0%
- coagulating activity A (autocoagulation test) (plasma hemostasis; 15.0 mg/kg intravenously, after 120 minutes, control 85.6): 101.2%
- coagulating activity A (autocoagulation test) (plasma hemostasis; 30.0 mg/kg intravenously, after 15 minutes, control 70.0): 100.3%
- coagulating activity A (autocoagulation test) (plasma hemostasis; 30.0 mg/kg intravenously, after 30 minutes, control 70.0): 68.4%
- coagulating activity A (autocoagulation test) (plasma hemostasis; 30.0 mg/kg intravenously, after 60 minutes, control 70.0): 106.6%
- coagulating activity A (autocoagulation test) (plasma hemostasis; 30.0 mg/kg intravenously, after 120 minutes, control 70.0): 70.6%
- coagulating activity A (autocoagulation test) (plasma hemostasis; 60.0 mg/kg intravenously, after 15 minutes, control 65.9): 74.4%
- coagulating activity A (autocoagulation test) (plasma hemostasis; 60.0 mg/kg intravenously, after 30 minutes, control 65.9): 63.2%
- coagulating activity A (autocoagulation test) (plasma hemostasis; 60.0 mg/kg intravenously, after 60 minutes, control 65.9): 64.4%
- coagulating activity A (autocoagulation test) (plasma hemostasis; 60.0 mg/kg intravenously, after 120 minutes, control 65.9): 66.5%
- effect on the coagulation activity according to the autocoagulation test (plasma hemostasis; doses 15.0, 30.0, 60.0 mg/kg): have no effect on the coagulation activity
- number of electrons participating in the reduction reaction ([2]; calculated with Geirovsky-Ilkovich equation): 4.09
- i ([2]; pH 7.0): 0.23 ± 0.03 mkA
- −E1/2 ([2]; pH 7.0): 0.092 ± 0.02 V
- i ([2]; pH 7.2): 0.30 ± 0.01 mkA
- −E1/2 ([2]; pH 7.2): 0.09 ± 0.01 V
- i ([2]; pH 7.4): 0.29 ± 0.02 mkA
- −E1/2 ([2]; pH 7.4): 0.092 ± 0.02 V
- i ([2]; pH 7.6): 0.31 ± 0.02 mkA
- −E1/2 ([2]; pH 7.6): 0.09 ± 0.01 V
- half-wave potential more positive at reverse stroke compared to forward stroke ([2]; polarograms of reverse stroke): 30.0 mV
- Activity of NOC: Mesencephalon ([3]; Control + Compound): 2.60 ± 0.29 pmol/min/mg of protein
- Activity of NOC: Hypothalamus ([3]; Control + Compound): 5.45 ± 0.24 pmol/min/mg of protein
- Activity of NOC: Mesencephalon ([3]; Control + Morphine + compound): 1.83 ± 0.23 pmol/min/mg of protein
- Activity of NOC: Hypothalamus ([3]; Control + Morphine + compound): 5.26 ± 0.28 pmol/min/mg of protein

— patent publication US8592421B2, “Cyclic bioisosters of purine system derivatives and a pharmaceutical composition based thereon” (priority 2003, dated 2013)
